Legend:
Assay in all cases: relative viability (nuclei count vs DMSO), 5 days (fraction); higher = more cells survive
[1] = compound: C(C(=O)C(=O)O)Br [Bromopyruvate] + Cc1cc(Nc2cc(N3CCN(C)CC3)nc(Sc3ccc(NC(=O)C4CC4)cc3)n2)n[nH]1 [Tozasertib] (partner 0.1 µM)
Procedure, shortened: (§1)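 A single step with final 0.05% Triton X-100, 1% formaldehyde and 1 ug/ml Hoechst fixed the cells and stained nuclei 5 days after treatment. Lung cancer cell lines in 1536-well plates had been treated by pin tool the day after seeding with one drug alone or a fixed anchor-drug dose plus five library-drug doses (not always all listed) in √10 steps, and nuclei were counted on 4× images. Relative viability is the ratio of nuclei in treated wells to nuclei in vehicle wells, taken as the median of duplicate plates.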

[2] = compound: CC(O)(CS(=O)(=O)c1ccc(F)cc1)C(=O)Nc1ccc(C#N)c(C(F)(F)F)c1 [Bicalutamide] + CC1(C)CCC(c2ccc(Cl)cc2)=C(CN2CCN(c3ccc(C(=O)NS(=O)(=O)c4ccc(N[C@H](CCN5CCOCC5)CSc5ccccc5)c(S(=O)(=O)C(F)(F)F)c4)cc3)CC2)C1 [Navitoclax] (partner 0.5 µM)
Procedure, shortened: as §1

[3] = compound: CC(O)(CS(=O)(=O)c1ccc(F)cc1)C(=O)Nc1ccc(C#N)c(C(F)(F)F)c1 [Bicalutamide] + C[C@@H](Oc1cc(-c2cnn(C3CCNCC3)c2)cnc1N)c1c(Cl)ccc(F)c1Cl [Crizotinib] (partner 1 µM)
Procedure, shortened: as §1

[4] = compound: CC(O)(CS(=O)(=O)c1ccc(F)cc1)C(=O)Nc1ccc(C#N)c(C(F)(F)F)c1 [Bicalutamide] + Nc1nc2[nH]cc(CCc3ccc(C(=O)N[C@@H](CCC(=O)O)C(=O)O)cc3)c2c(=O)[nH]1 [Pemetrexed] (partner 0.2 µM)
Procedure, shortened: as §1

| Cell Line | relative viability ([1]; first compound 1 µM) | relative viability ([1]; first compound 3.162 µM) | relative viability ([1]; first compound 10 µM) | relative viability ([1]; first compound 31.62 µM) | relative viability ([1]; first compound 100 µM) | relative viability ([2]; first compound 0.08 µM) | relative viability ([2]; first compound 0.253 µM) | relative viability ([2]; first compound 0.8 µM) | relative viability ([2]; first compound 2.53 µM) | relative viability ([3]; first compound 0.08 µM) | relative viability ([3]; first compound 0.253 µM) | relative viability ([3]; first compound 0.8 µM) | relative viability ([3]; first compound 2.53 µM) | relative viability ([4]; first compound 0.08 µM) | relative viability ([4]; first compound 0.253 µM) | relative viability ([4]; first compound 0.8 µM) | relative viability ([4]; first compound 2.53 µM) |
| --- | --- | --- | --- | --- | --- | --- | --- | --- | --- | --- | --- | --- | --- | --- | --- | --- | --- |
| HCC-44 | 0.953 | 1 | 0.997 | 1.02 | 0.882 | 0.921 | 0.949 | 0.924 | 0.982 | 0.838 | 0.817 | 0.832 | 0.968 | 0.675 | 0.707 | 0.637 | 0.688 |
| HCC-827 | 0.375 | 0.391 | 0.386 | 0.421 | 0.435 | 1.04 | 0.971 | 1.02 | 1.02 | 0.922 | 0.911 | 0.942 | 0.952 | 0.261 | 0.218 | 0.289 | 0.306 |
| NCI-H1623 | 0.419 | 0.423 | 0.527 | 0.468 | 0.369 | – | – | – | – | – | – | – | – | – | – | – | – |
| NCI-H2405 | 0.806 | 0.779 | 0.723 | 0.804 | 0.785 | 0.948 | 0.816 | 0.987 | 0.925 | 0.913 | 0.817 | 0.962 | 0.837 | 1.07 | 1.01 | 1.35 | 1.04 |
| PC-3 [JPC-3] | 0.906 | 0.868 | 0.937 | 0.841 | 0.892 | 0.867 | 0.775 | 0.869 | 0.91 | 1.02 | 1.07 | 1.06 | 1.02 | 1.08 | 1.11 | 1.41 | 1.12 |
| NCI-H1651 | 0.634 | 0.718 | 0.665 | 0.701 | 0.652 | 0.89 | 0.957 | 0.956 | 0.951 | 0.868 | 0.861 | 0.912 | 0.892 | 0.597 | 0.525 | 0.672 | 0.618 |
| HARA | 0.13 | 0.122 | 0.0899 | 0.13 | 0.102 | 1.15 | 1.15 | 1.11 | 1.13 | 0.946 | 1.07 | 1.19 | 1.09 | 0.233 | – | 0.299 | 0.251 |
| NCI-H1650 | 0.441 | 0.489 | 0.362 | 0.504 | 0.241 | 1.31 | 1.19 | 1.16 | 1.22 | 0.892 | 0.937 | 0.979 | 0.992 | 0.353 | 0.411 | 0.433 | 0.365 |
| NCI-H1395 | 0.757 | 0.788 | 0.834 | 0.718 | 0.751 | 1.1 | 1.1 | 1.55 | 1.1 | – | – | – | – | 0.89 | 0.766 | 0.965 | 0.709 |
| NCI-H1993 | 0.626 | 0.629 | 0.697 | 0.578 | 0.598 | – | 0.896 | 0.912 | 1.02 | – | 0.83 | 0.978 | 0.778 | 0.66 | 0.669 | 0.557 | 0.597 |

From the supplement of paper PMC10307832
